Test systems include A549; ACHN; HCT-116; K562; KM12; MOLT-4; NCI-H23; OVCAR-4; OVCAR-5; UACC-62; UO-31; COLO 205; HOP-92; SR; SNB-19.
Common to all, as to test: growth of human tumour cells (NCI), 48 h

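Growth conditions: 96-well plates. Treatment: test compound, 48 hours, 5 concentrations. Analysis: linear interpolation between bracketing concentrations; unreached endpoints set to highest concentration. GI50: concentration for 50% inhibition of growth.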 The source made the active and inactive calls. No stated cut-off is given here; in the data, active = GI50 up to about 1.1 µM and inactive = higher.

In the case of `CCOC(=O)C(C)(c1c(C)[nH]c2ccccc12)c1c(C)[nH]c2ccccc12`, the GI50 is 19 µM (inactive) with A549; 19.5 µM (inactive) in the assay on ACHN; 12.5 µM (inactive) in the assay with HCT-116; 8.36 µM (inactive) in the assay with K562; 14.2 µM (inactive) in the assay with KM12; 13.6 µM (inactive) with MOLT-4. The GI50 in the assay on NCI-H23 was 17.1 µM (inactive); with OVCAR-4, 14.9 µM (inactive); in the assay with OVCAR-5, 19.6 µM (inactive); with UACC-62, 14.2 µM (inactive); in the assay with UO-31, 12.5 µM (inactive).

On to `N=C(N)NCCCC(Nc1c2ccccc2nc2ccccc12)C(=O)O` (stereo not given), for which the GI50 in the assay on A549 was > 100 µM (inactive); in the assay on ACHN, > 100 µM (inactive); in the assay with COLO 205, > 100 µM (inactive); in the assay on HCT-116 it was > 100 µM (inactive); with HOP-92, > 100 µM (inactive); in the assay on K562, 84.9 µM (inactive). Moreover, the GI50 was > 100 µM (inactive) in the assay on KM12; 86.7 µM (inactive) in the assay on MOLT-4; > 100 µM (inactive) in the assay on NCI-H23; 3.51 µM (inactive) in the assay with OVCAR-4; > 100 µM (inactive) with OVCAR-5; > 100 µM (inactive) with SR.

For the molecule `COc1ccc(-c2cc(=O)c3c(OC)cccc3o2)c(OC)c1OC`, the GI50 in the assay with A549 is > 100 µM (inactive); in the assay with ACHN it was > 100 µM (inactive); with COLO 205, > 100 µM (inactive); with HCT-116, > 100 µM (inactive); in the assay with HOP-92, 39.9 µM (inactive); in the assay on K562 it was 68.5 µM (inactive). Moreover, the GI50 was > 100 µM (inactive) in the assay on KM12; 54.6 µM (inactive) in the assay with MOLT-4; > 100 µM (inactive) with NCI-H23; > 100 µM (inactive) in the assay with OVCAR-4; > 100 µM (inactive) in the assay with OVCAR-5; 56.1 µM (inactive) in the assay with SR. For the same molecule, in the assay on UACC-62, the GI50 was > 100 µM (inactive).

As to `CCSC1(SCC)CCN(/C=N/C(C)(C)C)C1`, the GI50 in the assay on A549 is > 100 µM (inactive); in the assay on ACHN it was > 100 µM (inactive); in the assay on COLO 205, 54.7 µM (inactive); in the assay on HCT-116 it was 78 µM (inactive); with K562, > 100 µM (inactive); in the assay with KM12, > 100 µM (inactive). The GI50 in the assay on MOLT-4, in the assay on NCI-H23, with OVCAR-4, in the assay on OVCAR-5, with SNB-19 and with SR was > 100 µM (inactive) each time. The GI50 with UACC-62 and in the assay with UO-31 was > 100 µM (inactive) in each case.

With `CCCC12Cc3c(OC)ccc(OC)c3CC(Cc3c(OC)ccc(OC)c31)C2=O` (stereo not given), the GI50 in the assay on A549 was > 100 µM (inactive); in the assay with ACHN, > 100 µM (inactive); with HCT-116, 10.8 µM (inactive); with K562, > 100 µM (inactive); in the assay with KM12 it was > 100 µM (inactive); with MOLT-4, 7.36 µM (inactive). In addition, the GI50 is > 100 µM (inactive) in the assay with NCI-H23; 18.8 µM (inactive) in the assay on OVCAR-4; > 100 µM (inactive) with OVCAR-5; > 100 µM (inactive) in the assay with SNB-19; 7.29 µM (inactive) in the assay on SR; > 100 µM (inactive) in the assay on UO-31.

Consider `Cc1cc2c(=O)cc(-c3cccs3)oc2c(C(=O)O)c1C`, for which the GI50 with A549 is > 100 µM (inactive); in the assay with ACHN it was > 100 µM (inactive); with COLO 205, > 100 µM (inactive); in the assay with HCT-116, > 100 µM (inactive); in the assay on HOP-92, > 100 µM (inactive); in the assay on K562, 35.8 µM (inactive). Also, the GI50 in the assay on KM12 was 97.7 µM (inactive); in the assay on MOLT-4, > 100 µM (inactive); in the assay with NCI-H23, > 100 µM (inactive); in the assay on OVCAR-4 it was > 100 µM (inactive); in the assay with OVCAR-5 it was > 100 µM (inactive); in the assay with SNB-19, > 100 µM (inactive). Further, the GI50 with UACC-62 and in the assay with UO-31 was > 100 µM (inactive) throughout.

Turning to `COc1ccc2c(c1OC)C1=C(C2=O)c2cc3c(cc2CCN1)OCO3`, the GI50 was 47.2 µM (inactive) with A549; 3.42 µM (inactive) in the assay on ACHN; 4.08 µM (inactive) in the assay with COLO 205; 32.8 µM (inactive) in the assay with HCT-116; 58.6 µM (inactive) in the assay with HOP-92; 25.1 µM (inactive) in the assay with K562. The GI50 is 20.4 µM (inactive) in the assay with KM12; 21.6 µM (inactive) in the assay with MOLT-4; 46.5 µM (inactive) in the assay on NCI-H23; 4.35 µM (inactive) in the assay with OVCAR-4; 23.7 µM (inactive) in the assay on OVCAR-5; 21 µM (inactive) in the assay with SR. Also, the figures for the GI50 in the assay on UACC-62 and in the assay with UO-31 were 35.4 µM (inactive) and 48.3 µM (inactive), respectively.

As for `COC12OCCN(C)C1=CC(=O)C1(C)N=NCC12` (stereo not given), the GI50 in the assay on A549, in the assay with ACHN, in the assay with COLO 205, with HCT-116, with HOP-92 and in the assay with K562 was > 100 µM (inactive) throughout. Also, the GI50 with KM12, with MOLT-4, with NCI-H23, in the assay on UACC-62 and in the assay with UO-31 was > 100 µM (inactive) each time.

On to `C=C1c2[nH]c3c([N+](=O)[O-])c(OC)ccc3c2CCN1C(C)=O`, for which the GI50 in the assay on A549, with ACHN, in the assay with COLO 205, in the assay with HCT-116, with K562 and in the assay on KM12 was > 100 µM (inactive) throughout. Besides, the GI50 in the assay with MOLT-4, in the assay with NCI-H23, in the assay with OVCAR-4, in the assay with OVCAR-5, in the assay on SNB-19 and in the assay with SR was > 100 µM (inactive) each time. For the same molecule, the GI50 with UACC-62 is 61.9 µM (inactive); in the assay with UO-31, > 100 µM (inactive).

For `CC(O[Si](C)(C)C)C1C=CC(C)n2c(=O)n(-c3ccccc3)c(=O)n21` (stereo not given), the GI50 in the assay on A549 was > 100 µM (inactive); in the assay on COLO 205, > 100 µM (inactive); in the assay on HCT-116 it was > 100 µM (inactive); in the assay with HOP-92, < 0.01 µM (active); with K562 it was > 100 µM (inactive); in the assay with KM12, > 100 µM (inactive). The GI50 in the assay with MOLT-4, in the assay on NCI-H23, in the assay with OVCAR-4, with OVCAR-5, with SNB-19 and in the assay on SR was > 100 µM (inactive) in each case. For the same molecule, the GI50 in the assay on UACC-62 and with UO-31 was > 100 µM (inactive) each time.

Turning to `CCCCc1c2c(nc3c1CCc1cc4cc5c(nc4nc1-3)-c1nc3c(c(CCCC)c1CC5)CCCC3)CCCC2`, the GI50 was 20.5 µM (inactive) in the assay with A549; 23.8 µM (inactive) with ACHN; 35.4 µM (inactive) in the assay with COLO 205; 34.5 µM (inactive) in the assay on HCT-116; 39.4 µM (inactive) in the assay with K562; 48.1 µM (inactive) in the assay with KM12. For the same molecule, the GI50 in the assay on MOLT-4 was 35.2 µM (inactive); in the assay on NCI-H23, 49.5 µM (inactive); in the assay on SNB-19 it was 34.4 µM (inactive); with SR, 47.4 µM (inactive); with UACC-62 it was 19.6 µM (inactive); in the assay with UO-31, 68.5 µM (inactive).

Regarding `CCOc1cc[n+]([C-](C#N)C#N)cc1`, the GI50 in the assay with A549, in the assay with COLO 205, in the assay with HCT-116, in the assay with HOP-92, in the assay on K562 and in the assay on KM12 was > 100 µM (inactive) in each case. Moreover, the GI50 with MOLT-4, in the assay with NCI-H23, with OVCAR-4, in the assay with OVCAR-5, with SNB-19 and in the assay with SR was > 100 µM (inactive) throughout. Further, the GI50 in the assay with UACC-62 and in the assay with UO-31 was > 100 µM (inactive) each time.

For `COc1ccc(C2=NN(C(=O)COc3ccc(Cl)cc3)C(O)(c3ccc(Cl)cc3)C2)cc1` (stereo not given), the GI50 in the assay with A549, in the assay with ACHN, in the assay on COLO 205, in the assay on HCT-116, in the assay on HOP-92 and in the assay on K562 was > 100 µM (inactive) in each case. Further, the GI50 with KM12 was > 100 µM (inactive); in the assay with MOLT-4, > 100 µM (inactive); with NCI-H23, 36.1 µM (inactive); in the assay on OVCAR-4, > 100 µM (inactive); with OVCAR-5, > 100 µM (inactive); in the assay with SNB-19, > 100 µM (inactive). The GI50 with UACC-62 and in the assay with UO-31 was > 100 µM (inactive) in each case.

`O=C1Cc2c([nH]c3ccccc23)-c2ccccc2N1` [PAULLONE]: the GI50 in the assay on A549 was 36.4 µM (inactive); with ACHN it was 36.6 µM (inactive); in the assay with COLO 205 it was 22 µM (inactive); in the assay with HCT-116, 16.7 µM (inactive); in the assay on HOP-92, 62.5 µM (inactive); with K562, 19.5 µM (inactive). The GI50 in the assay with KM12 is 18.3 µM (inactive); in the assay on MOLT-4 it was 17.1 µM (inactive); in the assay on NCI-H23 it was 16 µM (inactive); in the assay with OVCAR-4, 43.1 µM (inactive); in the assay with OVCAR-5, 26.8 µM (inactive); in the assay on SNB-19, 61.4 µM (inactive). Besides, the GI50 in the assay with UO-31 is 27.2 µM (inactive).

As for `Cc1ccc(S(=O)(=O)N/N=C(/CC(=O)c2c(C)[n+]([O-])c3ccccc3[n+]2[O-])C(=O)Nc2ccccc2C)cc1`, the GI50 with A549 is > 100 µM (inactive); with ACHN it was > 100 µM (inactive); in the assay with COLO 205, > 100 µM (inactive); in the assay on HCT-116, > 100 µM (inactive); in the assay on HOP-92, 30.8 µM (inactive); in the assay on KM12, > 100 µM (inactive). Also, the GI50 with NCI-H23 was > 100 µM (inactive); in the assay on OVCAR-4, > 100 µM (inactive); in the assay with OVCAR-5, > 100 µM (inactive); with SNB-19 it was > 100 µM (inactive); in the assay on SR, 35.5 µM (inactive); with UACC-62, > 100 µM (inactive). For the same molecule, the GI50 with UO-31 was > 100 µM (inactive).

The values are drawn from ChEMBL document CHEMBL1201862, “PubChem BioAssay data set” (2004).
